# Key:
# Adrenergic receptor beta = Adrenergic receptor beta (Homo sapiens, UniProt P08588+P07550+P13945); assay: Concentration required for inhibition of beta adrenergic receptor; format: protein assay
# [1] = molecular target: T1, Adrenergic receptor alpha-1 (Homo sapiens, UniProt P35348+P25100+P35368); assay: Concentration required for inhibition of alpha-1 adrenergic receptor using [3H]prazosin as the radioligand; format: protein assay
# T1 sequence (P35348 whole entry): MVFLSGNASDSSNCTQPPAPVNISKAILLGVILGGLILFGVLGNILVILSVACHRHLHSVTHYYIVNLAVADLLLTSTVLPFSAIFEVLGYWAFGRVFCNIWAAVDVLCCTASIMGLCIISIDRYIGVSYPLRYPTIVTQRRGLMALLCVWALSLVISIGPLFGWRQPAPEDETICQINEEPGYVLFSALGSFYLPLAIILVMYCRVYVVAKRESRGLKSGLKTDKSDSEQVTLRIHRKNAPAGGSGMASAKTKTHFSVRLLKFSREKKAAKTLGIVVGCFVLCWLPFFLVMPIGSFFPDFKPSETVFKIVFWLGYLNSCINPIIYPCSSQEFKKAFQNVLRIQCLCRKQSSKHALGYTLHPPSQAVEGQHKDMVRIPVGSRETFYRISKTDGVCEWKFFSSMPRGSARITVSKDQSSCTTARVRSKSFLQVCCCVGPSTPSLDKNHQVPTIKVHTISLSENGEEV
# T1 sequence (P25100 whole entry): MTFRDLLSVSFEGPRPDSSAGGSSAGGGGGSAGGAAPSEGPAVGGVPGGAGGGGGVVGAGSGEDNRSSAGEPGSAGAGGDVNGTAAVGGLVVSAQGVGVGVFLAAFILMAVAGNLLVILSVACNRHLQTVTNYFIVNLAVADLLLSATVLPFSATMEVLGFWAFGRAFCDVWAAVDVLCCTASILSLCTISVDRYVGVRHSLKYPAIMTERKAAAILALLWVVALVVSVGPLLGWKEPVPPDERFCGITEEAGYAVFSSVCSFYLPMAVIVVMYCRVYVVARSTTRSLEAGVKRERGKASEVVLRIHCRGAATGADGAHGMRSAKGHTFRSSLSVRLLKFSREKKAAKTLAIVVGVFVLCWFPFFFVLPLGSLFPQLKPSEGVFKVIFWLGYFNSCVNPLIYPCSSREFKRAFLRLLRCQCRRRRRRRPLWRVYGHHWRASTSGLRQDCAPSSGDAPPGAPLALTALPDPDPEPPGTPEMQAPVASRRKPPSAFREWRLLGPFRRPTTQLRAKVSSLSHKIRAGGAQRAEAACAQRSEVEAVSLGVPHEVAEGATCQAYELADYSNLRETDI
# T1 sequence (P35368 whole entry): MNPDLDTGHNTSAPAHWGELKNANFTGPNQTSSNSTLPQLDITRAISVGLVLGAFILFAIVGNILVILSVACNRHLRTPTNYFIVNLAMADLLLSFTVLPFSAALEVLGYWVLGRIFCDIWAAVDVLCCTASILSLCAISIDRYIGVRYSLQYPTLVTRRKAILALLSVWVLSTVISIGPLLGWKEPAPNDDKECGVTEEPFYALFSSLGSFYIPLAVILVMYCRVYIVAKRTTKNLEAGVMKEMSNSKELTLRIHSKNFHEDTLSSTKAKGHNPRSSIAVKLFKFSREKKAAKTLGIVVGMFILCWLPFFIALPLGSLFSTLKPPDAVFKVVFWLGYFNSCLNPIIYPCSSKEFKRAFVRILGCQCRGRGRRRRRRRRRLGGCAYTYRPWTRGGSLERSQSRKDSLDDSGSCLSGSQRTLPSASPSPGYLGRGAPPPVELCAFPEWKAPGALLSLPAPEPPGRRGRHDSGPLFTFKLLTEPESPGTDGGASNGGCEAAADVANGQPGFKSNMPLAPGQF
# [2] = molecular target: T2, Serotonin 3 (5-HT3) receptor (Rattus norvegicus, UniProt P35563+Q9JJ16); assay: Binding affinity towards 5-hydroxytryptamine 3 receptor using [3H]GR-65630 as the radioligand in male rat cortical tissue; format: protein-complex assay
# T2 sequence (P35563 whole entry): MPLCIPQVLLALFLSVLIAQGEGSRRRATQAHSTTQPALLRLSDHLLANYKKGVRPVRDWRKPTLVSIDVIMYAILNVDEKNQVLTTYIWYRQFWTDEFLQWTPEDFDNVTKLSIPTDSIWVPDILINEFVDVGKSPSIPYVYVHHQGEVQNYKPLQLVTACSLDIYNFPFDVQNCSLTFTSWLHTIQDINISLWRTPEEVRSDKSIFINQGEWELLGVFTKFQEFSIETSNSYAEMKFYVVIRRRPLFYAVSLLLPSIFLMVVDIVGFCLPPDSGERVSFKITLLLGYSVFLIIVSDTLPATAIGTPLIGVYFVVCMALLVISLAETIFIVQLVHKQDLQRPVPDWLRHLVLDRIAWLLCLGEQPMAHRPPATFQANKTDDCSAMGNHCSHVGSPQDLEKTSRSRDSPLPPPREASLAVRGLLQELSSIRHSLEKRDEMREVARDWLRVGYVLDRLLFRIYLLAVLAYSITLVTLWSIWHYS
# T2 sequence (Q9JJ16 whole entry): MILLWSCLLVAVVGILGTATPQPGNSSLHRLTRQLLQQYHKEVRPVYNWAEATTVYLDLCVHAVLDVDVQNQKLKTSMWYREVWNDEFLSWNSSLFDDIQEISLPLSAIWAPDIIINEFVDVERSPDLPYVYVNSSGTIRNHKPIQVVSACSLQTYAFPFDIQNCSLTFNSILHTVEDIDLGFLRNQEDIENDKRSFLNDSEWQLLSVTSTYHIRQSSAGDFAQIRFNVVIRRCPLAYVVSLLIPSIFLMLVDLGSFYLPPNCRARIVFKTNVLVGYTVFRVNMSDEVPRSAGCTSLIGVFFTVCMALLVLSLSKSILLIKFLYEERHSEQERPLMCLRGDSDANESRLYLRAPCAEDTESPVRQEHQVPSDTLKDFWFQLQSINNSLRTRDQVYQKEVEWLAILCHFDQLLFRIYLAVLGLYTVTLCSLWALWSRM
# [3] = molecular target: Serotonin 2 (5-HT2) receptor (Homo sapiens, UniProt P41595+P28223+P28335); format: protein assay
# [4] = Concentration required for inhibition of 5-hydroxytryptamine 3 receptor using [3H]GR-65630 as the radioligand
IC50 (Adrenergic receptor beta),IC50 [1],Ki [2],IC50 [3],IC50 [4],SMILES
> 10000 nM,> 10000 nM,336 nM,1800 nM,672 nM,COc1cc(N)c(Cl)cc1C(=O)NC1C2CC3CC1CN(C3)C2 (stereo in doubt; 9a)
> 10000 nM,> 10000 nM,9 nM,> 10000 nM,18 nM,COc1cc(N)c(Cl)cc1C(=O)NC1C2CC3CC1CN(C3)C2 (stereo in doubt; 9b)
> 10000 nM,> 10000 nM,25.4 nM,> 10000 nM,3.5 nM,COc1cc(N)c(Cl)cc1C(=O)NCC1C2CC3CC1CN(C3)C2 (stereo in doubt; 9c)
